From patent US20250180567A1, “METHOD FOR MEASURING GL[…] ANTIGEN PROTEIN OF HBV” (RCMG Inc., priority 2021, published 2025) come the findings set out here.

In assay [1] the test system is glycosylated recombinant HBs antigen protein. Put plainly: sandwich ELISA of immobilized HBs antibody (HBsAgGi) and biotinylated lectins. The conditions noted are these: FIG. 1; for detection of N-glycosylated S-HBs as a specific positive signal (ELISA absorbance): lectin-biotin 1 μg/mL, absorbance at 450 nm. Type of assay: binding, hepatitis B virus. The method, then:
A purified antibody against HBs antigen protein (HBsAgGi) was immobilized on a plate, and a sandwich ELISA system was constructed to examine the optimal lectin to be used for detecting the capturedHBs antigen.
1) HBsAgGi (5 μg/mL) diluted with BSA (5 μg/mL)/PBS was added to a Nunc Immobilizer Amino Plate at a volume of 0.1 mL per well, and the plate was shaken at room temperature for 4 hours to immobilize the antibody. After washing twice with PBS-T, 0.3 mL of TBS was added per well and the plate was allowed to stand overnight at 4° C. for blocking. 2) After washing with PBS-T, glycosylated recombinant HBs antigen protein was diluted to 400 ng/ml with Sample dilution buffer (3% BSA/TBS-T), 0.1 mL thereof was added per well, and the plate was shaken at room temperature for 2.5 hours to be captured the antigen on the antibody solid-phased plate. In order to confirm the effect of the serum, recombinant HBs antigen to which 5% Normal human serum (NHS) was added was also treated in the same manner. 3) After washing the wells four times with PBS-T, the wells were reacted with the following lectins diluted with PBS-T at room temperature for 2 hours by shaking.
Jacalin-biotin (1 μg/mL), MAL II-biotin (1 μg/mL), RCA120-biotin (1 μg/mL), SNA-biotin (1 μg/mL), SSA-biotin (1 μg/mL), WGA-biotin (1 μg/mL) 4) After washing four times with PBS-T, the wells were reacted with Peroxidase-conjugated Streptavidin (1/20,000 dilution) or SSA-HRP (2 μg/mL) diluted with PBS-T at room temperature for 1 hour by shaking.
5) After washing the wells four times with PBS-T, 0.1 mL of 1Step Ultra TMB-ELISA was added per well and allowed to react for 5 min, then 50 μL of 1 mol/L sulfuric acid was added to stop the reaction. After the reaction was stopped, the absorbance at 450 nm was immediately measured by a plate reader.

A further assay concerns glycosylated S-HBs. The assay can be described thus: lectin-antibody combination ELISA using sera from chronic hepatitis B patients. The assay is classed as binding, hepatitis B virus. The conditions noted are these: actual sera from chronic hepatitis B patients; lectin combined with S-HBs antibody. Here is the method:
This finding means that the glycosylated chains attached to S-HBs bind to WGA, which is completely unexpected.
Sera from untreated (no treatment history with nucleic acid analogs) chronic hepatitis B patients (HBs antigen positivity persisting for 6 months or more) (n=4) were used before (0) weeks) and 48 weeks after nucleic acid analog treatment. 1) HBsAg antibody (Hyb-824, 5 μg/mL) diluted with BSA (5 μg/mL)/PBS was added to a Nunc Immobilizer Amino Plate in an amount of 0.1 mL per well, and the plate was shaken at room temperature for 2 hours to immobilize the antibody. After washing twice with PBS-T, 0.3 mL of TBS was added per well and the wells were allowed to stand at 4° C. overnight for blocking. 2) After washing the wells with PBS-T, patient samples (before treatment and 48 weeks after treatment) were diluted 1/20 and 1/100 with Sample dilution buffer (3% BSA/TBS-T), and 0.1 mL was added per well, and the plate was shaken at room temperature for 1.5 hours to capture the antigen onto the antibody-immobilized plate. […] After the reaction was stopped, the absorbance at 450 nm was immediately measured by a plate reader.

As for Salvia sclarea agglutinin [SSA lectin], the “detection of N-glycosylated S-HBs as a specific positive signal (ELISA absorbance)” value in assay [1] is given as “could not detect”. Also, the “specificity of detection of glycosylated S-HBs in patient sera” value in the assay with glycosylated S-HBs is recorded as “unexpectedly low”.
Consider wheat germ agglutinin [WGA lectin], for which the “effect of NHS added to the sample on lectin detection” value in assay [1] (5% Normal human serum (NHS) added to recombinant HBs antigen) is reported as “not affected”. The “reaction of the lectin with the solid-phased antibody” value in assay [1] (antibody HBsAgGi immobilized on plate) is listed as “did not react”. For the same substance, the “detection of N-glycosylated S-HBs as a specific positive signal (ELISA absorbance)” value in assay [1] was “very clear detection”. Moreover, the “specificity of detection of glycosylated S-HBs in patient sera” value in the assay with glycosylated S-HBs was “could specifically detect”.
